Results from patent publication US10202379B2, “Substituted polycyclic carbamoyl pyridone derivative prodrug” (priority 2010, dated 2019).
Read-outs that look alike come from different tables or passages of the source.

Experiments:
[1] = target: Cap-dependant Endonuclease (CEN) (RNP fraction, PB1-PB2-PA complex) (Influenza A virus (strain A/Wilson-Smith/1933 H1N1) (Influenza A virus (strain A/WS/1933 H1N1)), UniProt P15659); assay type: biochemical, influenza A/WSN/33 virus
influenza virus = experiment: microbe, parasite or virus in culture; assay type: cell-based; conditions: MDBK or MDCK cells, 3 days, WST-8
[2] = parent compounds (Reference examples), room temperature, 60 minutes
[3] = unidentified influenza virus, 72 h, read-out: CPE EC50, parent compounds (Reference examples)
[4] = parent compounds (Reference examples), read-out: CPE EC50

Row | SMILES | IC50 [1, 2] | EC50 (influenza virus; [3]) | IC50 [1] | EC50 (influenza virus; [4])
1 | C#Cc1cccc2c1[C@H](N1CN([C@H](C)C(F)(F)F)C(=O)c3c(O)c(=O)ccn31)c1ccccc1SC2 [compound 730] | 0.00252 µM | 0.000799 µM | – | –
2 | C[C@@H](N1CN([C@@H]2c3ccccc3SCc3cccc(C(F)(F)F)c32)n2ccc(=O)c(O)c2C1=O)C(F)(F)F [compound 741] | 0.021 µM | 0.00351 µM | – | –
3 | COCCCC1N(CC(F)(F)F)C(=O)c2c(O)c(=O)ccn2N1C1c2ccc(F)cc2CCc2cc(F)ccc21 (stereo not shown) [Reference example 643] | 0.163 µM | 0.132 µM | – | –
4 | C[C@@H](N1CN([C@@H]2c3ccccc3SCc3cccc(Cl)c32)n2cc(CO)c(=O)c(O)c2C1=O)C(F)(F)F [compound 666] | – | – | 0.00336 µM | 0.00391 µM
5 | C[C@@H](CO)N1CN(C2c3ccccc3CSc3ccccc32)n2ccc(=O)c(O)c2C1=O (stereo partly shown) [Reference example 375] | 0.037 µM | 0.073 µM | – | –
6 | Cc1cn2c(c(O)c1=O)C(=O)N([C@H](C)C(F)(F)F)CN2[C@@H]1c2ccccc2SCc2c1ccc(F)c2F [compound 704] | 0.0111 µM | 0.0035 µM | – | –
7 | C[C@@H](N1CN([C@H]2c3ccc(F)cc3CSc3c(Cl)cccc32)n2ccc(=O)c(O)c2C1=O)C(F)(F)F [Reference example 602] | 0.005 µM | 0.004 µM | – | –
8 | C[C@@H](N1CN(C2c3ccccc3CCc3cc(F)c(F)cc32)n2ccc(=O)c(O)c2C1=O)C(F)(F)F (stereo partly shown) [Reference example 636] | 0.074 µM | 0.015 µM | – | –
9 | C[C@@H](N1CN([C@@H]2c3cccc(F)c3SCc3cccc(F)c32)n2ccc(=O)c(O)c2C1=O)C(F)(F)F [Reference example 599] | 0.025 µM | 0.008 µM | – | –
10 | CC(=O)c1cn2c(c(O)c1=O)C(=O)N([C@H](C)C(F)(F)F)CN2[C@H]1c2cc(F)c(F)cc2CSc2ccccc21 [compound 692] | 0.0369 µM | 0.00964 µM | – | –
11 | Cc1cccc2c1SCc1c(F)cccc1[C@@H]2N1CN([C@H](C)C(F)(F)F)C(=O)c2c(O)c(=O)ccn21 [Reference example 623] | 0.021 µM | 0.003 µM | – | –
12 | C[C@@H]1Sc2ccccc2[C@@H](N2CN([C@H](C)C(F)(F)F)C(=O)c3c(O)c(=O)ccn32)c2c(Cl)cccc21 [compound 748] | 0.0242 µM | 0.00914 µM | – | –
13 | C[C@@H](N1CN([C@@H]2c3ccc(F)cc3SCc3cccc(Cl)c32)n2ccc(=O)c(O)c2C1=O)C(F)(F)F [compound 772] | 0.00522 µM | 0.00368 µM | – | –
14 | C[C@@H](N1CN([C@H]2c3ccccc3CCc3cccc(F)c32)n2ccc(=O)c(O)c2C1=O)C(F)(F)F [Reference example 633] | 0.053 µM | 0.022 µM | – | –
15 | COCCN1CC(C(c2ccccc2)c2ccccc2)n2cc(C(=O)O)c(=O)c(O)c2C1=O (stereo not shown) [Example 2] | 0.048 µM | 0.293 µM | – | –
16 | C[C@@H](N1CN([C@H]2c3ccccc3SCc3cccc(N(C)C)c32)n2ccc(=O)c(O)c2C1=O)C(F)(F)F [compound 753] | 0.109 µM | 0.0185 µM | – | –
17 | CCc1cccc2c1[C@H](N1CN([C@H](C)C(F)(F)F)C(=O)c3c(O)c(=O)ccn31)c1ccccc1SC2 [compound 731] | 0.00576 µM | 0.00208 µM | – | –
18 | COc1cccc2c1CSc1ccccc1[C@H]2N1CN([C@H](C)C(F)(F)F)C(=O)c2c(O)c(=O)ccn21 [Reference example 600] | 0.059 µM | 0.036 µM | – | –
19 | CCc1cccc2c1[C@H](N1CN([C@H](C)C(F)(F)F)C(=O)c3c(O)c(=O)ccn31)c1cccc(F)c1SC2 [compound 724] | 0.00507 µM | 0.00633 µM | – | –
20 | CC(C)N1C(=O)c2c(OCc3ccccc3)c(=O)ccn2N(C2c3ccccc3CCc3ccccc32)C1c1ccc(Cl)cc1 (stereo not shown) [Reference example 527] | – | – | 0.127 µM | 0.088 µM
21 | COCCC(=O)Oc1c2n(ccc1=O)N([C@@H]1c3ccccc3SCc3c(Cl)cccc31)CN([C@H](C)C(F)(F)F)C2=O [Example 108] | – | – | 0.037 µM | 0.019 µM
22 | Cc1cccc2c1CSc1c(F)cccc1[C@H]2N1CN([C@H](C)C(F)(F)F)C(=O)c2c(O)c(=O)ccn21 [Reference example 617] | 0.053 µM | 0.017 µM | – | –
23 | C[C@@H](N1CN([C@H]2c3ccccc3CCc3c(F)cccc32)n2ccc(=O)c(O)c2C1=O)C(F)(F)F [Reference example 628] | 0.043 µM | 0.013 µM | – | –
24 | O=C1c2c(O)c(=O)ccn2N([C@@H]2c3ccccc3SCc3cccc(Cl)c32)[C@H]2COCCN12 [compound 682] | 0.0197 µM | 0.0035 µM | – | –
25 | C[C@@H](N1CN([C@@H]2c3cccc(F)c3SCc3cccc(Br)c32)n2ccc(=O)c(O)c2C1=O)C(F)(F)F [compound 771] | 0.00589 µM | 0.00405 µM | – | –
26 | C[C@@H](N1CN([C@H]2c3ccc(F)cc3CSc3ccccc32)n2cc(B(O)O)c(=O)c(O)c2C1=O)C(F)(F)F [compound 708] | 0.0465 µM | 0.00849 µM | – | –
27 | C[C@@H](N1CN(C(c2ccccc2)c2ccc(Cl)cc2)n2ccc(=O)c(O)c2C1=O)C(F)(F)F (stereo partly shown) [Reference example 650] | 0.219 µM | 0.103 µM | – | –

Row | SMILES | IC50 [1, 2] | EC50 (influenza virus; [3]) | IC50 [1] | EC50 (influenza virus; [4])
28 | Cc1cccc2c1[C@H](N1CN([C@H](C)C(F)(F)F)C(=O)c3c(O)c(=O)ccn31)c1ccccc1SC2 [Reference example 665] | 0.018 µM | 0.005 µM | – | –
29 | C[C@@H](N1CN(C(c2ccccc2Cl)c2ccccc2Cl)n2ccc(=O)c(O)c2C1=O)C(F)(F)F [Reference example 648] | 0.132 µM | 0.059 µM | – | –
30 | C[C@@H](N1CN([C@H]2c3ccccc3CSc3cccc(F)c32)n2ccc(=O)c(O)c2C1=O)C(F)(F)F [Reference example 603] | 0.037 µM | 0.015 µM | – | –
31 | COC(=O)c1cn2c(c(O)c1=O)C(=O)N1CCCCN1C2C(c1ccccc1)c1ccccc1 (stereo not shown) [Reference example 506] | 0.247 µM | 1.62 µM | – | –
32 | C[C@@H](N1CN([C@H]2c3ccc(F)cc3CSc3c(Br)cccc32)n2ccc(=O)c(O)c2C1=O)C(F)(F)F [Reference example 619] | 0.005 µM | 0.006 µM | – | –
33 | C[C@@H](N1CN([C@H]2c3cc(F)c(F)cc3CSc3ccccc32)n2ccc(=O)c(O)c2C1=O)C(F)(F)F [compound 668] | – | 0.00384 µM | 0.0126 µM | –
34 | C[C@@H](N1CN([C@@H]2c3cccc(F)c3SCc3cccc(Cl)c32)n2ccc(=O)c(O)c2C1=O)C(F)(F)F [Reference example 621] | – | 0.002 µM | 0.006 µM | –
35 | C[C@@H](N1CN([C@@H]2c3ccccc3SCc3cccc(Br)c32)n2ccc(=O)c(O)c2C1=O)C(F)(F)F [Reference example 654] | 0.008 µM | 0.001 µM | – | –
36 | C[C@@H](N1CN([C@H]2c3cccc(F)c3SCc3cccc(Cl)c32)n2ccc(=O)c(O)c2C1=O)C(F)(F)F [Reference example 622] | – | 0.012 µM | 0.089 µM | –
37 | C#Cc1cccc2c1[C@H](N1CN([C@H](C)C(F)(F)F)C(=O)c3c(O)c(=O)ccn31)c1cccc(F)c1SC2 [compound 726] | 0.00374 µM | 0.00393 µM | – | –
38 | C[C@@H](N1CN(C2c3ccc(F)cc3CCc3cc(F)ccc32)n2ccc(=O)c(O)c2C1=O)C(F)(F)F [Reference example 640] | 0.057 µM | 0.006 µM | – | –
39 | COCCCC1N(CC(F)(F)F)C(=O)c2c(O)c(=O)ccn2N1C1c2ccccc2CCc2ccccc21 (stereo not shown) [Reference example 642] | – | 0.094 µM | 0.256 µM | –
40 | C[C@@H](N1CN([C@@H]2c3ccc(Cl)cc3SCc3c(F)cccc32)n2ccc(=O)c(O)c2C1=O)C(F)(F)F [Reference example 663] | 0.031 µM | 0.018 µM | – | –
41 | COCC[C@@H]1N([C@H](C)C(F)(F)F)C(=O)c2c(O)c(=O)ccn2N1C1c2ccccc2CCc2ccccc21 [Reference example 645] | 0.105 µM | 0.016 µM | – | –
42 | COC[C@H](C)N1C(=O)c2c(O)c(=O)ccn2N(C2c3ccccc3CCc3ccccc32)C1CCN(C)C (stereo partly shown) [Reference example 644] | – | 0.06 µM | 0.238 µM | –
43 | C[C@@H](N1CN([C@@H]2c3ccccc3SCc3c2ccc(F)c3F)n2ccc(=O)c(O)c2C1=O)C(F)(F)F [compound 711] | – | 0.00428 µM | 0.00557 µM | –
44 | C[C@@H](N1CN([C@@H]2c3ccccc3SCc3c2ccc(F)c3F)n2cc(Cl)c(=O)c(O)c2C1=O)C(F)(F)F [compound 716] | – | 0.0056 µM | 0.00554 µM | –
45 | COc1cccc2c1[C@H](N1CN([C@H](C)C(F)(F)F)C(=O)c3c(O)c(=O)ccn31)c1ccccc1SC2 [compound 728] | 0.0747 µM | 0.00432 µM | – | –
46 | O=C1c2c(O)c(=O)ccn2N(C2c3ccccc3CSc3ccccc32)CN1Cc1ncns1 (stereo not shown) [Reference example 316] | 0.069 µM | 0.083 µM | – | –
47 | Cc1cccc2c1SCc1cccc(Cl)c1[C@@H]2N1CN([C@H](C)C(F)(F)F)C(=O)c2c(O)c(=O)ccn21 [compound 768] | 0.0153 µM | 0.00364 µM | – | –
48 | C[C@@H](N1CN([C@@H]2c3cccc(F)c3CSc3c(Cl)cccc32)n2ccc(=O)c(O)c2C1=O)C(F)(F)F [Reference example 597] | – | 0.049 µM | 0.339 µM | –
49 | O=C1c2c(O)c(=O)ccn2N(C2c3ccccc3CSc3ccccc32)CN1C1COC1 (stereo not shown) [Reference example 609] | 0.053 µM | 0.025 µM | – | –
50 | C[C@@H](N1CN([C@@H]2c3ccccc3CCc3c(Cl)cccc32)n2ccc(=O)c(O)c2C1=O)C(F)(F)F [Reference example 641] | 0.046 µM | 0.023 µM | – | –
51 | CCN(CC)CCN1CN(C2c3ccccc3CCc3ccccc32)n2ccc(=O)c(O)c2C1=O [Reference example 490] | 0.212 µM | 0.468 µM | – | –
52 | C[C@@H](N1CN([C@@H]2c3ccccc3SCc3c(Cl)cccc32)n2ccc(=O)c(OCOC(=O)NCCN)c2C1=O)C(F)(F)F [Example 178] | – | – | 0.061 µM | 0.075 µM
53 | C[C@@H](N1CN([C@@H]2c3ccccc3SCc3cccc(Cl)c32)n2cc(Cl)c(=O)c(O)c2C1=O)C(F)(F)F [compound 762] | 0.0315 µM | 0.0059 µM | – | –
